Marks after values point to notes of the source that are not given here.
What was measured:
Db/db mouse, ob/ob mouse = assay: Improvement of polydipsia and polyurea; type: in vivo; conditions: in feed, hereditary diabetic obese mouse
C57BL/Ksj-db/db mice = assay: AS-6 in feed to db/db mice (Example 4); type: in vivo, mouse; conditions: 0.1% in feed, 1 week
Description: C57BL/Ksj-db/db mice, which were model animals of multiple risk factor syndrome, were raised for a week with powered feed containing an ascochlorin derivative, 4-O-carboxymethylascochlorin (AS-6), in a content of 0.1%. Thereafter, the weight, blood sugar, blood insulin, and blood neutral fat were measured.

Zucker rats = assay: Glucose tolerance test using Zucker rats (Example 6); type: in vivo, rat
Description: The effect of 4-O-carboxymethylascochlorin (AS-6) in a glucose tolerance test were checked by using Zucker rats. Zucker control rats, Zucker AS-6 administered rats (20 mg/kg, perorally for a week), and Lean control rats were fasted overnight. Next morning, blood was taken from the caudal vein, and thereafter, 2 g/kg of glucose was perorally administered. Blood was taken from the caudal vein 30, 60 and 120 minutes after the administration and checked for blood sugar (7 mice/group).

[1] = Zucker rats, 20 mg/kg perorally for a week

With `CC(C=CC1(C)C(C)CCC(=O)C1C)=CCc1c(O)c(C=O)c(C)c(Cl)c1OCC(=O)O` (stereo not shown) [AS-6, 4-O-carboxymethylascochlorin] the “amount of drinking water” value (Db/db mouse, ob/ob mouse) was “obese mouse, the amount of drinking water decreases in a dose-dependent manner,”, the “amount of sugar excreted in the urine” value (Db/db mouse, ob/ob mouse) was “excreted in the urine significantly decreases” and the “Blood sugar, change vs db/db control group” value (C57BL/Ksj-db/db mice) was −30.0%**. For the same compound, the “Body weight, change vs db/db control group” value (C57BL/Ksj-db/db mice) was “ns”, the “Cholesterol, change vs db/db control group” value (C57BL/Ksj-db/db mice) was “ns” and the “Free fatty acid, change vs db/db control group” value (C57BL/Ksj-db/db mice) was −21.1%**. For the same compound, the “Insulin, change vs db/db control group” value (C57BL/Ksj-db/db mice) was “ns”, the “Neutral fat, change vs db/db control group” value (C57BL/Ksj-db/db mice) was −38.3%** and the Free fatty acid (C57BL/Ksj-db/db mice; db/db control 1.164 ± 0.03) was 0.918 ± 0.1 mEq/L. For the same compound, the Insulin (C57BL/Ksj-db/db mice; db/db control 31.0 ± 3.6) was 34.6 ± 3.5 μU/mL, the Body weight (C57BL/Ksj-db/db mice; db/db control 52.9 ± 0.8) was 56.3 ± 1.2 g and the Cholesterol (C57BL/Ksj-db/db mice; db/db control 109.9 ± 3.3) was 114.4 ± 4.3 mg/dL. For the same compound, the Neutral fat (C57BL/Ksj-db/db mice; db/db control 378.5 ± 19.3) was 223.5 ± 17.7 mg/dL, the blood sugar (C57BL/Ksj-db/db mice; db/db control 637.3 ± 28.9) was 445.8 ± 32.5 mg/dL and the “blood sugar, blood free fatty acid, and blood neutral fat” value (C57BL/Ksj-db/db mice; db/db mice) was “significantly reduced”. The “blood sugar, change vs Zucker control group” value (Zucker rats; 0 minute after glucose loading) was −19.7%(*), the blood sugar (Zucker rats; 20 mg/kg perorally for a week, 0 minute after glucose loading (fasted overnight), Zucker control 107.5 ± 5.0) was 86.3 ± 4.5 and the blood sugar (Zucker rats; 20 mg/kg perorally for a week, 30 minutes after glucose loading, Zucker control 235.1 ± 9.6) was 167.5 ± 3.8. The blood sugar (Zucker rats; 20 mg/kg perorally for a week, 60 minutes after glucose loading, Zucker control 275.8 ± 13.2) was 220.2 ± 5.0, the blood sugar (Zucker rats; 20 mg/kg perorally for a week, 120 minutes after glucose loading, Zucker control 290.3 ± 4.6) was 202.8 ± 3.6 and the “blood sugar, change vs Zucker control group” value (Zucker rats; 30 minutes after glucose loading) was −28.8%(**). For the same compound, the “blood sugar, change vs Zucker control group” value (Zucker rats; 60 minutes after glucose loading) was −20.2%(*), the “blood sugar, change vs Zucker control group” value (Zucker rats; 120 minutes after glucose loading) was −30.1%(**) and the “blood sugar level 30, 60, 120 minutes after glucose loading” value (Zucker rats; [1]) was “significant decreases”. The “decrease of fasting blood sugar level” value (Zucker rats; [1]) was 19.7%.

— US20050153870A1, “Medicinal composition for diagnosis, prevention, or therapy of multiple risk factor syndrome” (priority 2002, published 2005)
